Laboratory results taken from US20140328944A1, “USE OF CTBP1 siRNA FOR THE TREATMENT OF GASTRIC CANCER” (CTI, priority 2013, published 2014).

Test system: AGS and MKN45 gastric cancer cell lines
Experiment: MTS-based cell proliferation assay after siRNA transfection (drug dose-response)
Settings: CTBP1 siRNA (5 nM) vs untreated cells (WT) and control siRNA, 72 h drug incubation
Protocol: MKN45 cell lines were grown in RPM1-1640 media and AGS cell lines in F12K, both media were supplemented with 10% characterized fetal bovine serum (FBS) (Hyclone, Logan, Utah, USA) and 100 U /ml of Penicillin /Streptomycin (Gibco BRL, Gaithersburgh, Md., USA). Cells were grown in an incubator (NUAIRE, Plymouth, USA) at 37° C. with an atmosphere of 5% CO2 and 90% humidity. The drugs 5-FU, Cisplatin and Epirubicin were donated for this research by the Kampar Oncology Laboratory (Santiago, Chile).
In 6-well plates, 200,000 cells were cultured in their respective culture medium with 10% FBS for 24 h at 37° C. and 5% CO2 pressure. Then cells were washed once with PBS IX and 900 ul of their respective medium without serum and without antibiotic were added.
The cells were transfected with a pool of 4 siRNA Flexitube siRNA CTBP1 and siRNA control AllStars Negative Control (QIAGEN, Valencia, Calif., USA) at a concentration of 5 nM with 2.5 ul of Lipofectamine 2000 (Invitrogen, Carlsbad, Calif., USA). […]
24 hours after transfection, cells were seeded in 96 well plates at a concentration of 10,000 cells per well. […] The IC50 values were calculated using GraphPad 5.0 software. The results of the response to the drugs were expressed as mean±SD. […]

SMILES	increase in sensitivity to the drug on silencing of CTBP1 with siRNA
COc1cccc2c1C(=O)c1c(O)c3c(c(O)c1C2=O)C[C@@](O)(C(=O)CO)C[C@@H]3O[C@H]1C[C@H](N)[C@@H](O)[C@H](C)O1 [Epirubicin]	12-17 times
O=c1[nH]cc(F)c(=O)[nH]1 [5-FU, 5-Fluorouracil]	approximately 6 times
